The series has as its system GENE-TOX genotoxicity assays, various organisms and cells. Put plainly: GENE-TOX mutagenicity studies. The following applies: for call: Assay Type: In vivo carcinogenicity studies, Assay Code: CCG+.
[1] abbreviates: Species/Cell Type: Human lymphocytes, Assay Type: Sister-chromatid exchange (SCE) in vitro, Assay Code: SCL+D, Dose Response: With dose response, Evaluation Type: Evaluation B (Post-1980).
The mark [2] stands for this setting: Species/Cell Type: Human, Assay Type: Sister-chromatid exchange (SCE) in vitro, Assay Code: SC1+D, Dose Response: With dose response, Evaluation Type: Evaluation B (Post-1980).
The mark [3] stands for this setting: Species/Cell Type: Salmonella typhimurium (one or more of the five standard strains: TA98, TA100, TA1535, TA1537, and TA1538), Assay Type: Histidine reverse gene mutation, Ames assay, Assay Code: SAL+*, Activation: With metabolic activation, Evaluation Type: Evaluation A (Pre-1980).
[4] abbreviates: Species/Cell Type: Salmonella typhimurium (one or more of the five standard strains: TA98, TA100, TA1535, TA1537, and TA1538), Assay Type: Histidine reverse gene mutation, Ames assay, Assay Code: SALT, Evaluation Type: Evaluation A (Pre-1980).
The mark [5] stands for this setting: Species/Cell Type: Salmonella typhimurium (one or more of the five standard strains: TA98, TA100, TA1535, TA1537, and TA1538), Assay Type: Histidine reverse gene mutation, Ames assay, Assay Code: SAL+, Evaluation Type: Evaluation A (Pre-1980).
Where [6] appears, read: Species/Cell Type: Bacillus subtilis (H17 vs M45T), Assay Type: Rec-assay, spot test, DNA effects (bacterial DNA repair), Assay Code: REXT, Evaluation Type: Evaluation A (Pre-1980).
Setting [7] is: Species/Cell Type: Nonhuman, Evaluation Type: Evaluation A (Pre-1980).
Where [8] appears, read: Species/Cell Type: Nonhuman, Assay Type: Sister-chromatid exchange (SCE) in vitro, Assay Code: SC2+D, Dose Response: With dose response, Evaluation Type: Evaluation B (Post-1980).
[9] abbreviates: Species/Cell Type: Escherichia coli polA (W3119 vs P3478), Assay Type: Rec-assay, DNA effects (bacterial DNA repair), Assay Code: RE1T, Evaluation Type: Evaluation A (Pre-1980).

Activity calls are given as the source filed them. The rule behind the calls is not given here.

Take `CC1(C)O[C@@H]1COc1c2occc2cc2ccc(=O)oc12`: the mutagenic call was “active; positive” under setting [1] and “active; positive” under setting [2].

As for `COc1cc2c(c3oc(=O)c4c(c13)CC[C@@H]4O)[C@@H]1C=CO[C@@H]1O2`, the mutagenic call is “active; positive” (Species/Cell Type: Human diploid fibroblasts, Assay Type: Unscheduled DNA synthesis (UDS) in vitro, DNA effects, Assay Code: UDH+D, Dose Response: With dose response, Evaluation Type: Evaluation A (Pre-1980)) and “active; positive” under setting [3].

Turning to `O=c1c(=O)c2c3ccccc3cc3ccc4cccc1c4c32`, the mutagenic call by setting is: (Species/Cell Type: Chinese hamster lung (V79) cells, Assay Type: Forward gene mutation at the HPRT or ouabain locus, Assay Code: V79-, Evaluation Type: Evaluation A (Pre-1980)) “inactive; negative”; under setting [4], “no conclusion”.

For the compound `O=C1c2ccccc2C(=O)c2c1cc(O[C@H]1O[C@H](CO[C@@H]3OC[C@@H](O)[C@H](O)[C@H]3O)[C@@H](O)[C@H](O)[C@H]1O)c(CO)c2O`, the mutagenic call under setting [3] is “active; positive”.

With `CCCCC(=O)N(C)N=O`, the mutagenic call (Species/Cell Type: Saccharomyces cerevisiae, Assay Type: Reverse gene mutation, Assay Code: YER+, Evaluation Type: Evaluation A (Pre-1980)) was “active; positive”.

`CON(C)C(=O)Nc1ccc(Br)cc1`: the mutagenic call (Species/Cell Type: Hordeum vulgare (barley), Assay Type: Chromosome aberrations, Assay Code: HOC-, Evaluation Type: Evaluation A (Pre-1980)) is “inactive; negative”.

As for `CCN(CC)c1ccc(N=Nc2ccccc2)cc1`, the mutagenic call reads like this: (Species/Cell Type: Saccharomyces cerevisiae, Assay Type: Mitotic recombination or gene conversion, Assay Code: YEH-, Evaluation Type: Evaluation A (Pre-1980)) “inactive; negative”; (Species/Cell Type: Salmonella typhimurium (one or more of the five standard strains: TA98, TA100, TA1535, TA1537, and TA1538), Assay Type: Histidine reverse gene mutation, Ames assay, Assay Code: SAL-, Evaluation Type: Evaluation A (Pre-1980)) “inactive; negative”.

As for `CC(=O)O/C=C/Cc1ccc2c(c1)OCO2`, the mutagenic call (Species/Cell Type: Human diploid fibroblasts, Assay Type: Unscheduled DNA synthesis (UDS) in vitro, DNA effects, Assay Code: UDH+, Evaluation Type: Evaluation A (Pre-1980)) was “active; positive”.

In the case of `O=Cc1ccccc1[N+](=O)[O-]`, the mutagenic call under setting [5] is “active; positive”.

As for `CC(=O)Nc1nc(NC(C)=O)nc(-c2ccc([N+](=O)[O-])o2)n1`, the mutagenic call under setting [5] was “active; positive”.

Consider `Cc1ccc(N=Nc2c(O)ccc3ccccc23)c(C)c1`, for which the mutagenic call is “no conclusion” under setting [6] and “active; positive” under setting [3].

As to `C[CH2][Pb]([CH2]C)([CH2]C)[CH2]C`, the mutagenic call (Species/Cell Type: Syrian hamster embryo (SA7/SHE) cells, Assay Type: Cell transformation, viral enhanced, Assay Code: CT7+, Evaluation Type: Evaluation A (Pre-1980)) was “active; positive”.

Consider `OCc1ccn2c1[C@H](O)CC2`, for which the mutagenic call under setting [1] is “active; positive” and the mutagenic call under setting [2] is “active; positive”.

As to `CC1CN1P(=O)(N(C)C)N(C)C` (stereo not given), the mutagenic call (Species/Cell Type: Drosophila melanogaster, Assay Type: Sex-linked recessive lethal gene mutation, Assay Code: SRL+, Evaluation Type: Evaluation A (Pre-1980)) is “active; positive”.

On to `Nc1ccc(Cc2ccc(N)cc2)cc1`, for which, under setting [7], the call is “active; positive”. Besides, under “Species/Cell Type: Nonhuman, Assay Type: Sister-chromatid exchange (SCE) in vivo, Assay Code: SC3+, Evaluation Type: Evaluation B (Post-1980)”, the mutagenic call is “active; positive”.

With `Nc1ccc(-c2nc(N3CCOCC3)c3ccccc3n2)s1`, the mutagenic call under setting [4] is on record as “no conclusion”.

Take `O=[N+]([O-])c1ccccc1O`: the mutagenic call (Species/Cell Type: Allium cepa, Assay Type: Chromosome aberrations, Assay Code: ALC-, Evaluation Type: Evaluation A (Pre-1980)) is “inactive; negative”.

On to `BrCCCCCBr`, for which the mutagenic call (Species/Cell Type: Escherichia coli polA (W3119 vs P3478), Assay Type: Rec-assay, DNA effects (bacterial DNA repair), Assay Code: RE1+, Evaluation Type: Evaluation A (Pre-1980)) is “active; positive”.

In the case of `Cc1csc(NNC=O)n1`, the mutagenic call reads like this: (Species/Cell Type: Escherichia coli WP2, Assay Type: Tryptophan reverse gene mutation, Assay Code: WP2-, Evaluation Type: Evaluation A (Pre-1980)) “inactive; negative”; (Species/Cell Type: Escherichia coli WP2 UVRA, Assay Type: Tryptophan reverse gene mutation, Assay Code: WPU-, Evaluation Type: Evaluation A (Pre-1980)) “inactive; negative”.

Consider `ClCC1OC(CCl)OC(CCl)O1` (stereo not given), for which the mutagenic call under setting [5] was “active; positive”.

In the case of `Cc1c(N(C)C)c(=O)n(-c2ccccc2)n1C`, under “Species/Cell Type: Nonhuman, Assay Type: Sister-chromatid exchange (SCE) in vitro, Assay Code: SC2-, Evaluation Type: Evaluation A (Pre-1980)”, the mutagenic call was “inactive; negative”.

Consider `Cc1ncc(CO)c(C(=O)O)c1O`, for which the mutagenic call was “no conclusion” (Species/Cell Type: Human lymphocytes, Assay Type: Sister-chromatid exchange (SCE) in vitro, Assay Code: SCLT, Evaluation Type: Evaluation B (Post-1980)) and “no conclusion” (Species/Cell Type: Human, Assay Type: Sister-chromatid exchange (SCE) in vitro, Assay Code: SC1T, Evaluation Type: Evaluation B (Post-1980)).

For `O=c1ccn([C@H]2C[C@H](O)[C@@H](COP(=O)(O)O)O2)c(=O)[nH]1`, the mutagenic call (Species/Cell Type: Drosophila melanogaster, Assay Type: Sex-linked recessive lethal gene mutation, Assay Code: SRLT, Evaluation Type: Evaluation A (Pre-1980)) is listed as “no conclusion”.

For the compound `O=C1c2ccccc2C(=O)c2c(NCCNCCO)ccc(NCCNCCO)c21`, under setting [8], the mutagenic call is “active; positive”.

On to `CN(N=O)C(=O)Nc1ccc(Cl)cc1`, for which, under setting [8], the mutagenic call was “active; positive”.

As for `Cc1cc2ccccc2c2ccc3c(c12)CCC3=O`, the mutagenic call under setting [3] was “active; positive”.

As to `C=CC(O)c1ccc(OC)cc1` (stereo not given), under setting [4], the mutagenic call is “no conclusion”.

Consider `CNc1ccc(N(CCO)CCO)cc1[N+](=O)[O-]`, for which the mutagenic call was “no conclusion” (Species/Cell Type: Mammalian polychromatic erythrocytes, Assay Type: Micronucleus test, chromosome aberrations, Assay Code: MNTT, Evaluation Type: Evaluation B (Post-1980)) and “active; positive” under setting [8]. Moreover, under setting [7], the call was “active; positive”.

As to `O=C(O)c1ccccc1C(=O)Nc1cccc2ccccc12`, the mutagenic call is, setting by setting: (Species/Cell Type: Hordeum vulgare (barley), Assay Type: Chromosome aberrations, Assay Code: HOC+, Evaluation Type: Evaluation A (Pre-1980)) “active; positive”; (Species/Cell Type: Vicia faba, Assay Type: Chromosome aberrations, Assay Code: VIC+, Evaluation Type: Evaluation A (Pre-1980)) “active; positive”.

Consider `NC(N)=O`, for which the mutagenic call is “active; positive” (Species/Cell Type: Allium cepa, Assay Type: Chromosome aberrations, Assay Code: ALC+D, Dose Response: With dose response, Evaluation Type: Evaluation A (Pre-1980)); “no conclusion” under setting [9]; “inactive; negative” (Species/Cell Type: Glycine max (soybean), Assay Type: Gene mutation, Assay Code: GLM-, Evaluation Type: Evaluation A (Pre-1980)); “active; positive” (Species/Cell Type: Human lymphocytes or leukocytes, Assay Type: Chromosome aberrations in vitro, Assay Code: CY7+, Evaluation Type: Evaluation A (Pre-1980)); “inactive; negative” (Species/Cell Type: Mouse, Sex: Male, Assay Type: Sperm morphology, Assay Code: SPI-, Evaluation Type: Evaluation A (Pre-1980)); “active; positive” (Species/Cell Type: Plant, Assay Type: Micronucleus test, chromosome aberrations, Assay Code: MNP+, Evaluation Type: Evaluation A (Pre-1980)).

In the case of `[Cl][Pt-2]([Cl])([Cl])([Cl])([Cl])[Cl]`, the mutagenic call (Species/Cell Type: Bacillus subtilis (H17 vs M45), Assay Type: Rec-assay, spot test, DNA effects (bacterial DNA repair), Assay Code: REW+, Evaluation Type: Evaluation A (Pre-1980)) was “active; positive”.

Consider `C[N+](C)(C)CCO`, for which the mutagenic call runs as follows: under setting [9], “no conclusion”; (Species/Cell Type: Nonhuman, Assay Type: Sister-chromatid exchange (SCE) in vitro, Assay Code: SC2+, Evaluation Type: Evaluation B (Post-1980)) “active; positive”.

With `CC1CCCCN1CCNc1ccc(CO)c2sc3ccccc3c(=O)c12` (stereo not given), the mutagenic call (Species/Cell Type: Mouse lymphoma (L5178Y) cells, Assay Type: Forward gene mutation at the thymidine kinase (TK) locus, chromosome aberrations, Assay Code: L51+, Evaluation Type: Evaluation A (Pre-1980)) was “active; positive”.

Take `COc1cc(-c2ccc(-[n+]3nc(-c4ccccc4)nn3-c3ccc([N+](=O)[O-])cc3)c(OC)c2)ccc1-[n+]1nc(-c2ccccc2)nn1-c1ccc([N+](=O)[O-])cc1`: the mutagenic call under setting [6] is “no conclusion”.

Regarding `CN(CCCC(=O)O)N=O`, under setting [4], the mutagenic call is “no conclusion”.

As to `CC[C@@]1(O)C[C@H](O[C@H]2C[C@H](N(C)C)[C@H](O)[C@H](C)O2)c2c(cc3c(c2O)C(=O)c2c(O)cccc2C3=O)[C@H]1C(=O)OC`, under setting [4], the mutagenic call is listed as “no conclusion”.

In the case of `CCCCCCCCO`, the mutagenic call (Species/Cell Type: Nonhuman, Assay Type: Sister-chromatid exchange (SCE) in vitro, Assay Code: SC2T, Evaluation Type: Evaluation B (Post-1980)) is “no conclusion”.
